Data: ChEMBL document CHEMBL3865811, “Synthesis and biological activities of d-chiro-inositol analogues with insulin-like actions” (2016)

Experiments:
3T3-L1 [1] = assay: Induction of 2-deoxy-D-[2,6-3H]glucose uptake in differentiated mouse 3T3L1 cells at 200 uM after 60 mins by liquid scintillation counting relative to basal uptake; format: functional
3T3-L1 [2] = assay: Induction of 2-deoxy-D-[2,6-3H]glucose uptake in differentiated mouse 3T3L1 cells at 200 uM after 60 mins by liquid scintillation counting relative to insulin; format: functional

SMILES: O[C@H]1[C@H](O)[C@H](O)[C@@H](O)[C@H](O)[C@H]1O
- fold change (FC) (3T3-L1 [1]): 1.4 - 2.8
- Activity (3T3-L1 [2]): 64%

SMILES: OC1[C@@H](O)[C@H](O)C[C@@H](O)[C@@H]1O (stereo partly specified)
- fold change (FC) (3T3-L1 [1]): 0.5
- Activity (3T3-L1 [2]): -106%

SMILES: CCCC(=O)O[C@H]1[C@H](O)[C@@H](O)[C@@H](O)[C@H](O)[C@@H]1O
- fold change (FC) (3T3-L1 [1]): 1.3
- Activity (3T3-L1 [2]): 19%

SMILES: CCCCO[C@H]1[C@@H](O)[C@H](O)[C@H](O)[C@@H](O)[C@@H]1O
- fold change (FC) (3T3-L1 [1]): 1.4
- Activity (3T3-L1 [2]): 22%

SMILES: CCCCO[C@H]1[C@H](O)[C@H](O)[C@@H](O)[C@H](O)[C@H]1O
- fold change (FC) (3T3-L1 [1]): 1.4 - 1.5
- Activity (3T3-L1 [2]): 8%

SMILES: O[C@@H]1[C@@H](O)[C@@H](O)C[C@H](O)[C@H]1O
- fold change (FC) (3T3-L1 [1]): 1.3
- Activity (3T3-L1 [2]): 22%

SMILES: O[C@H]1[C@H](O)[C@@H](O)[C@H](O)[C@H](O)[C@H]1O
- fold change (FC) (3T3-L1 [1]): 1.5 - 3
- Activity (3T3-L1 [2]): 43%

SMILES: O[C@H]1[C@H](O)[C@H](O)C[C@H](O)[C@H]1O
- fold change (FC) (3T3-L1 [1]): 1.3
- Activity (3T3-L1 [2]): 40%
